{
  "source": "ChEMBL document CHEMBL5390201",
  "about": "“The Natural Alkaloid (-)-N-Hydroxyapiosporamide Suppresses Colorectal Tumor Progression as an NF-κB Pathway Inhibitor by Targeting the TAK1-TRAF6 Complex” (J Nat Prod, 2023)",
  "key": {"[1]": {"test_system": "HT-29", "assay": "Cytotoxicity against human HT-29 cells assessed as decrease in cell viability incubated for 48 hrs by SRB assay", "assay_type": "functional, cell-based", "details": "HT-29, 48 h"}, "[2]": {"test_system": "HCT-116", "assay": "Cytotoxicity against human HCT-116 cells assessed as decrease in cell viability incubated for 48 hrs by SRB assay", "assay_type": "functional, cell-based", "details": "HCT-116, 48 h"}, "[3]": {"test_system": "RKO", "assay": "Cytotoxicity against human RKO cells assessed as decrease in cell viability incubated for 48 hrs by SRB assay", "assay_type": "functional, cell-based"}, "[4]": {"test_system": "SW480", "assay": "Cytotoxicity against human SW480 cells assessed as decrease in cell viability incubated for 48 hrs by SRB assay", "assay_type": "functional, cell-based", "details": "SW480, 48 h"}, "[5]": {"test_system": "SW-620", "assay": "Cytotoxicity against human SW620 cells assessed as decrease in cell viability incubated for 48 hrs by SRB assay", "assay_type": "functional, cell-based", "details": "SW-620, 48 h"}, "[6]": {"assay": "Half life in ip dosed mouse", "assay_type": "ADME, organism-based", "details": "in vivo"}, "[7]": {"test_system": "HCT-15", "assay": "Cytotoxicity against human HCT-15 cells assessed as decrease in cell viability incubated for 48 hrs by SRB assay", "assay_type": "functional, cell-based", "details": "HCT-15, 48 h"}},
  "data": [
    {"molecule": "O=c1[nH]cc(F)c(=O)[nH]1", "note": "[FLUOROURACIL]", "values": [
      {"measurement": "IC50", "setting": "[1]", "value": 12, "unit": "µM"},
      {"measurement": "IC50", "setting": "[2]", "value": 12, "unit": "µM"},
      {"measurement": "IC50", "setting": "[3]", "value": 12, "unit": "µM"},
      {"measurement": "IC50", "setting": "[4]", "value": 12, "unit": "µM"},
      {"measurement": "IC50", "setting": "[5]", "value": 12, "unit": "µM"},
      {"measurement": "half-life", "setting": "[6]", "value": 1.36, "unit": "h"},
      {"measurement": "IC50", "setting": "[7]", "value": 12, "unit": "µM"}
    ]}
  ]
}
